Earlier results in patent US20040092577A1, “Microparticle pharmaceutical compositions for intratumoral delivery” (priority 2002, published 2004).

Assays:
[1] = test system: MDA-468 breast cancer cells; settings: Lankmela et al.
[2] = gels, 0.6% loading; Zentner 2001

rate of uptake α [1] [s⁻¹] | duration of delivery [2] [weeks] | Compound
0.016 | – | COc1cccc2c1C(=O)c1c(O)c3c(c(O)c1C2=O)C[C@@](O)(C(=O)CO)C[C@@H]3O[C@H]1C[C@H](N)[C@H](O)[C@H](C)O1 [doxorubicin]
– | 1 to 6 | CC(=O)O[C@H]1C(=O)[C@@]2(C)[C@H]([C@H](OC(=O)c3ccccc3)[C@]3(O)C[C@H](OC(=O)[C@H](O)[C@@H](NC(=O)c4ccccc4)c4ccccc4)C(C)=C1C3(C)C)[C@]1(OC(C)=O)CO[C@@H]1C[C@@H]2O [Paclitaxel]
